Molecules are shown by their SMILES. Values after ≈ are worked out from the molar mass of the structure shown. Where two headings read alike, the source gives them in different places.

The source of these data is US9617256B2 (priority 2007, dated 2017).

The subject of assay [1] is ASAU001 (laboratory strain of S. aureus, ATCC29213). As to the kind of experiment: MIC broth microdilution, ASAU001. To be noted: Staphylococcus aureus, ATCC29213, read-out: MIC ASAU001. The class given is cell-based. The method in brief:
(§1)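 Incubation: 35° C., ambient air, 18-24 h. Medium: cation-adjusted Mueller-Hinton broth with 2-fold serial dilutions of drug. Inoculum: 3×10^5–7×10^5 CFU/mL final, per CLSI microdilution method.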
In general terms: In broth dilution the organism is exposed to a series of concentrations in liquid medium.

Assay [2] relates to APAE006 (strain of P. aeruginosa in which all efflux pumps are inactivated). As to the kind of experiment: microbe, parasite or virus in culture. The class given is cell-based. As to conditions: Pseudomonas aeruginosa, read-out: MIC APAE006, APAE006, all efflux pumps inactivated. The method in brief: (§2)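 (ambient air) in cation-adjusted MHB; inoculum from 0.5 McFarland suspensions, final 3×10^5–7×10^5 CFU/mL; 2-fold serial drug dilutions per CLSI. APAE006: P. aeruginosa with all efflux pumps inactivated.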

The test system of assay [3] is APAE006 in the presence of 8 micrograms per milliliter of polymyxin B nonapeptide. Format: cell-based, P. aeruginosa. To be noted: APAE006 with 8 micrograms per milliliter polymyxin B nonapeptide. The method in brief: as §2
Assay [4] deals with AECO063 (ATCC25922 bearing an acrAB mutation). Description: microbe, parasite or virus in culture. As to conditions: Escherichia coli, ATCC25922, read-out: MIC AECO063. Format: cell-based, E. coli. An outline of the steps: as §1
The subject of the next assay is AECO001 (ATCC25922). As to the kind of experiment: MIC broth microdilution, AECO001. To be noted: Escherichia coli. The class given is cell-based, E. coli. The method in brief:
as §1

Another assay relates to APAE001 (ATCC27853). Description: MIC broth microdilution, APAE001. Format: cell-based, P. aeruginosa. To be noted: Pseudomonas aeruginosa, ATCC27853, read-out: MIC APAE001, APAE001 (ATCC27853). The method in brief: as §1
Assay [5] deals with AABA1060 (clinical isolate of Acinetobacter baumannii). As to the kind of experiment: MIC broth microdilution, AABA1060. Format: cell-based. To be noted: Acinetobacter baumannii, read-out: MIC AABA1060. The method in brief:
as §1

Where [6] appears, read: ATCC25922, read-out: MIC AECO001.
[7] abbreviates: ATCC25922, read-out: MIC AECO001 HSA AGP.

Consider `CC(C)(N)[C@H](NC(=O)c1ccc(C#C/C=C/C2CC2)cc1)C(=O)NO` [Example 107-4], for which the MIC is 2 to 16 µg/mL (≈ 5.86 to 46.9 µM) in assay [1]; below 2 µg/mL in assay [2]; below 2 µg/mL in assay [4]; below 2 µg/mL in the assay on AECO001 (ATCC25922) (setting [6]); below 2 µg/mL in the assay with AECO001 (ATCC25922) (setting [7]); below 2 µg/mL in the assay with APAE001 (ATCC27853). In assay [5], the MIC was below 2 µg/mL. Besides, in assay [3], the “MIC APAE006 + PMBN” value is on record as “A (MIC's of 2.0 μg/mL or less = A)”.

For the compound `C[C@@H](NC(=O)CNC1CC1)[C@H](NC(=O)c1ccc(C#Cc2ccccc2)cc1)C(=O)NO` [Example 132-2], the MIC in assay [1] was 16 to 64 µg/mL (≈ 36.8 to 147 µM); in assay [2] it was below 2 µg/mL; in assay [4] it was below 2 µg/mL; in the assay with AECO001 (ATCC25922) (setting [6]) it was below 2 µg/mL; with AECO001 (ATCC25922) (setting [7]) it was 2 to 16 µg/mL (≈ 4.6 to 36.8 µM); in the assay on APAE001 (ATCC27853), 2 to 16 µg/mL (≈ 4.6 to 36.8 µM). Further, the MIC in assay [5] fell in the range of 16 to 64 µg/mL (≈ 36.8 to 147 µM). Moreover, the “MIC APAE006 + PMBN” value in assay [3] is given as “A (MIC's of 2.0 μg/mL or less = A)”.

On to `CC(C)(N)[C@H](NC(=O)c1ccc(C#CC#CCC2CCCC2)cc1)C(=O)NO` [Example 91-23], for which the MIC in assay [1] is 2 to 16 µg/mL (≈ 5.24 to 41.9 µM); in assay [2], below 2 µg/mL; in assay [4], below 2 µg/mL; in the assay on AECO001 (ATCC25922) (setting [6]) it was below 2 µg/mL; in the assay on AECO001 (ATCC25922) (setting [7]), 2 to 16 µg/mL (≈ 5.24 to 41.9 µM); in the assay on APAE001 (ATCC27853), 2 to 16 µg/mL (≈ 5.24 to 41.9 µM). For the same compound, in assay [5], the MIC is 2 to 16 µg/mL (≈ 5.24 to 41.9 µM). For the same compound, the “MIC APAE006 + PMBN” value in assay [3] is “A (MIC's of 2.0 μg/mL or less = A)”.

With `C[C@@H](N)[C@H](NC(=O)c1ccc(C#Cc2ccc(OC3CC3)cc2)cc1)C(=O)NO` [Example 125-1, N-((1S,2R)-2-Amino-1-hydroxycarbamoyl-propyl)-4-(4-cyclopropoxy-phenylethynyl)-benzamide], the MIC in assay [1] was 16 to 64 µg/mL (≈ 40.7 to 163 µM); in assay [2], below 2 µg/mL; in assay [4], below 2 µg/mL; in the assay on AECO001 (ATCC25922) (setting [6]), below 2 µg/mL; with AECO001 (ATCC25922) (setting [7]), 2 to 16 µg/mL (≈ 5.08 to 40.7 µM); in the assay on APAE001 (ATCC27853) it was 2 to 16 µg/mL (≈ 5.08 to 40.7 µM). The MIC in assay [5] was below 2 µg/mL. For the same compound, in assay [3], the “MIC APAE006 + PMBN” value is “A (MIC's of 2.0 μg/mL or less = A)”.

`Cn1cnc(C#CC#Cc2ccc(C(=O)N[C@H](C(=O)NO)C(C)(C)N)cc2)c1` [Example 89-5]: the MIC was 16 to 64 µg/mL (≈ 42.2 to 169 µM) in assay [1]; below 2 µg/mL in assay [2]; below 2 µg/mL in assay [4]; 2 to 16 µg/mL (≈ 5.27 to 42.2 µM) in the assay with AECO001 (ATCC25922) (setting [6]); 2 to 16 µg/mL (≈ 5.27 to 42.2 µM) in the assay with AECO001 (ATCC25922) (setting [7]); below 2 µg/mL in the assay with APAE001 (ATCC27853). The MIC in assay [5] was 2 to 16 µg/mL (≈ 5.27 to 42.2 µM). Further, in assay [3], the “MIC APAE006 + PMBN” value is given as “A (MIC's of 2.0 μg/mL or less = A)”.

`C[C@@H](N)[C@H](NC(=O)c1ccc(C#CC#Cc2cnn(C)c2)cc1)C(=O)NO` [Example 89-1, N-((2S,3R)-3-amino-1-(hydroxyamino)-1-oxobutan-2-yl)-4-((1-methyl-1H-pyrazol-4-yl)buta-1,3-diynyl)benzamide]: the MIC in assay [1] was 16 to 64 µg/mL (≈ 43.8 to 175 µM); in assay [2], below 2 µg/mL; in assay [4], below 2 µg/mL; in the assay with AECO001 (ATCC25922) (setting [6]), below 2 µg/mL; with AECO001 (ATCC25922) (setting [7]) it was 2 to 16 µg/mL (≈ 5.47 to 43.8 µM); with APAE001 (ATCC27853), below 2 µg/mL. Moreover, the MIC in assay [5] fell in the range of 2 to 16 µg/mL (≈ 5.47 to 43.8 µM). The “MIC APAE006 + PMBN” value in assay [3] was “A (MIC's of 2.0 μg/mL or less = A)”.

For `CC(C)(C)CNCc1ccc(C#Cc2ccc(C(=O)N[C@H](C(=O)NO)C(C)(C)N)cc2)cc1` [Example 122-2], the MIC in assay [1] is 16 to 64 µg/mL (≈ 35.5 to 142 µM); in assay [2], below 2 µg/mL; in assay [4], below 2 µg/mL; with AECO001 (ATCC25922) (setting [6]), below 2 µg/mL; in the assay on AECO001 (ATCC25922) (setting [7]) it was 2 to 16 µg/mL (≈ 4.44 to 35.5 µM); in the assay with APAE001 (ATCC27853) it was below 2 µg/mL. Also, the MIC in assay [5] lay in the range of 2 to 16 µg/mL (≈ 4.44 to 35.5 µM). For the same compound, in assay [3], the “MIC APAE006 + PMBN” value is “A (MIC's of 2.0 μg/mL or less = A)”.

For the compound `CC(C)(N)[C@H](NC(=O)c1ccc(/C=C/C#CC2CCCC2)cc1)C(=O)NO` [Example 114-20], the MIC is 2 to 16 µg/mL (≈ 5.41 to 43.3 µM) in assay [1]; below 2 µg/mL in assay [2]; below 2 µg/mL in assay [4]; below 2 µg/mL in the assay on AECO001 (ATCC25922) (setting [6]); 2 to 16 µg/mL (≈ 5.41 to 43.3 µM) with AECO001 (ATCC25922) (setting [7]); 2 to 16 µg/mL (≈ 5.41 to 43.3 µM) with APAE001 (ATCC27853). For the same compound, the MIC in assay [5] was below 2 µg/mL. Moreover, in assay [3], the “MIC APAE006 + PMBN” value is given as “A (MIC's of 2.0 μg/mL or less = A)”.
